Measurements from ChEMBL document CHEMBL4433201, “Progress in the development of selective heme oxygenase-1 inhibitors and their potential therapeutic application” (Eur J Med Chem, 2019).

Columns and labels:
[1] = target: T1, Heme oxygenase 2 (Rattus norvegicus, UniProt P23711); test: Inhibition of HO-2 in Sprague-Dawley rat brain microsomes using NADPH as substrate preincubated for 10 mins followed by substrate addition and measured after 15 mins by GC analysis
T1 sequence (P23711 whole entry): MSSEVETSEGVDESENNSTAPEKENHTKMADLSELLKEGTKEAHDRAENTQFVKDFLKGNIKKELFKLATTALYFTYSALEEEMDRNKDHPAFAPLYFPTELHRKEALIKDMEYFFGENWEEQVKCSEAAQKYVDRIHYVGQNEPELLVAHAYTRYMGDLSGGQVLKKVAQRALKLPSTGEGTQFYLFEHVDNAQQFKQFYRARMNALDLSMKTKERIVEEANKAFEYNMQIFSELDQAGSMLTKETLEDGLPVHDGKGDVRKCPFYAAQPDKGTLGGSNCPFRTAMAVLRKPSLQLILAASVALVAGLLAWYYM

[2] = target: T2, Heme oxygenase 1 (Rattus norvegicus, UniProt P06762); test: Inhibition of HO-1 in Sprague-Dawley rat spleen microsomes using NADPH as substrate preincubated for 10 mins followed by substrate addition and measured after 15 mins by GC analysis
T2 sequence (P06762 whole entry): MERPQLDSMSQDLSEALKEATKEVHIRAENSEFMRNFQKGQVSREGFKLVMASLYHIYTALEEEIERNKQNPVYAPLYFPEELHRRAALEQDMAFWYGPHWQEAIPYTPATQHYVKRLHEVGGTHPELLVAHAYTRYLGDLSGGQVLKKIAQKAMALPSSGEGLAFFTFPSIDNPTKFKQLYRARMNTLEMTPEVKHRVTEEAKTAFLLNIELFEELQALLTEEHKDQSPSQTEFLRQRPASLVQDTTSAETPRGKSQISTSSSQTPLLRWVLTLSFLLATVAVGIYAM

[3] = target: T3, Heme oxygenase 1 (Homo sapiens, UniProt P09601); test: Inhibition of human recombinant HO-1 by spectrometry based assay
T3 sequence (P09601 whole entry): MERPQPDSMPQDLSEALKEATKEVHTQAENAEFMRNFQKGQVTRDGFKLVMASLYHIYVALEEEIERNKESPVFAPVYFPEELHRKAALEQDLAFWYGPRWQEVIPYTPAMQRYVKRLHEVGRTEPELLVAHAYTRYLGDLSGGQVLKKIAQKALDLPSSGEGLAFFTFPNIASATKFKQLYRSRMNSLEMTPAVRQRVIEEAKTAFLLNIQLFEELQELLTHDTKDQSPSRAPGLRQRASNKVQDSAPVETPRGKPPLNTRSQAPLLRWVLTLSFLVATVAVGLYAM

[4] = target: T4, Heme oxygenase 2 (Homo sapiens, UniProt P30519); test: Inhibition of HO-2 (unknown origin)
T4 sequence (P30519 whole entry): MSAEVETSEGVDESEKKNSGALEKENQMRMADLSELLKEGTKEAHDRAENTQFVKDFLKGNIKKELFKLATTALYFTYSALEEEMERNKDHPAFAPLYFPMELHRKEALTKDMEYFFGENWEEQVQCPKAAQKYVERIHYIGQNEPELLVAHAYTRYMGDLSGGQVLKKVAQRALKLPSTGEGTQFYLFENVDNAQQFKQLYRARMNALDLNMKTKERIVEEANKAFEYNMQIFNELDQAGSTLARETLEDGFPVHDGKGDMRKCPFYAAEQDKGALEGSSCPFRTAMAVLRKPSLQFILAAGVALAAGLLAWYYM

[5] = target: T2, Heme oxygenase 1; test: Inhibition of HO-1 in Sprague-Dawley rat spleen microsomes using NADPH as substrate incubated for 60 mins by spectrometry based assay
[6] = Growth inhibition of […] B16 cells incubated for 72 hrs by sulforhodamine B assay; type: functional; conditions: B16, 72 h

| IC50 [1] [µM] | IC50 [2] [µM] | Compound | other results |
| --- | --- | --- | --- |
| 5.1 | > 100 | Brc1ccc(Cn2c(CC3CC4CCC3C4)nc3ccccc32)cc1 (stereo not given) |  |
| 5.4 | > 100 | Brc1ccc(Cn2c(CC3CCCCC3)nc3ccccc32)cc1 |  |
|  |  | FC(F)(F)c1ccc(COc2ccc(CCn3ccnc3)cc2)cc1 | IC50 [3]: 54 µM |
|  |  | c1ccc(COc2ccc(CCn3ccnc3)cc2)cc1 | IC50 [3]: 0.9 µM |
|  |  | O=C(Cn1ccnc1)C12CC3CC(CC(C3)C1)C2 | IC50 [4]: > 100 µM |
| 4.2 | 2.7 | Brc1ccc(Cn2c(Cn3ccnc3)nc3ccccc32)cc1 |  |
| 31.9 | > 100 | Clc1ccc(Cn2c(CN3CCOCC3)nc3ccccc32)cc1 |  |
|  |  | Brc1cccc(OCCCCn2ccnc2)c1 | IC50 [4]: 2.2 µM |
|  |  | OC(Cn1ccnc1)c1ccc(-c2ccc(Br)cc2)cc1 (stereo not given) | IC50 [3]: 0.06 µM |
|  |  | O=C(Cn1ccnc1)c1ccc(Br)cc1 | IC50 [5]: 2.5 µM |
| 3.3 | 32.4 | Clc1ccc(Cn2c(CC3CCCC3)nc3ccccc32)cc1 |  |
|  |  | O=[N+]([O-])c1ccc(C(O)Cn2ccnc2)cc1 (stereo not given) | IC50 [5]: 10 µM |
| 5.4 | > 100 | Clc1ccc(Cn2c(CC3CCCCC3)nc3ccccc32)cc1 |  |
|  |  | Brc1ccc(OCCCCCCn2ccnc2)cc1 | IC50 [5]: 10 µM |
|  |  | Brc1ccc(CCC2(Cn3ccnc3)OCCO2)cc1 | IC50 [3]: 1.9 µM; IC50 [4]: > 100 µM |
|  |  | Brc1ccc(CCCCn2ccnc2)cc1 | IC50 [3]: 0.25 µM |
|  |  | c1ccc(OCCn2ccnc2)cc1 | IC50 [5]: 28 µM |
|  |  | OC(Cn1ccnc1)c1cccc(Br)c1 (stereo not given) | IC50 [6]: 37 µM |
| 4.3 | > 100 | Clc1ccc(Cn2c(CC3CC4CCC3C4)nc3ccccc32)cc1 (stereo not given) |  |
|  |  | COc1ccc2[nH]c(=O)c(-c3nc(-c4ccccc4)c(-c4ccccc4)[nH]3)cc2c1 | IC50 [5]: 9.2 µM |
| 30.1 | > 100 | Brc1ccc(Cn2c(CN3CCOCC3)nc3ccccc32)cc1 |  |
